Data taken from PubChem BioAssay AID1648 (Sanford-Burnham Center for Chemical Genomics, 2009).
Activity calls are given as the source filed them. How the calls were made is not given here.

Target: Serine/threonine-protein kinase mTOR (Homo sapiens) (UniProt P42345)
Assay: binders of mTOR FRB domain, biophysical, NMR (AID 1648)
Details: NMR binding to FRB domain, chemical shift

Chain of Serine/threonine-protein kinase mTOR (Homo sapiens) (P42345 2015-2114): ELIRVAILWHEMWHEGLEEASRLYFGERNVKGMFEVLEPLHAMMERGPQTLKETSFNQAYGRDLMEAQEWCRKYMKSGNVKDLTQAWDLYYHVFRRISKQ

Row | Structure (SMILES) | Kd
1 | Cn1cnnc1SCC(=O)Nc1ccccc1 | > 4 mM (inactive)
2 | Cc1cc(=O)[nH]c(NCC(=O)O)n1 | > 4 mM (inactive)
3 | Cc1cc(C(=O)Nc2ccc3c(c2)OCO3)cs1 | > 4 mM (inactive)
4 | Brc1ccc(-c2nc(-c3ccncc3)no2)o1 | > 4 mM (inactive)
5 | Cc1cc(C(=O)NC(C)c2ccncc2)cs1 (configuration not stated) | > 4 mM (inactive)
6 | NC(=O)C1CCN(C(=S)c2ccccc2)CC1 | > 4 mM (inactive)
7 | O=c1c2ccccc2ncn1C1CCCCC1 | > 4 mM (inactive)
8 | COCC(=O)/C=C1\Sc2ccccc2N1C | > 4 mM (inactive)
9 | Cc1ccc(CCNc2ccccc2)c[n+]1[O-] | > 4 mM (inactive)
10 | O=C(CSc1ncnc2ccccc12)NCCCO | > 4 mM (inactive)
11 | CCOC(=O)c1csc(N)n1 | > 4 mM (inactive)
12 | O=C(Nc1ccc(N2CCCC2=O)cc1)c1cccc(F)c1 | > 4 mM (inactive)
13 | CC(=O)Nc1ccccc1OCC(N)=O | > 4 mM (inactive)
14 | Cc1cc(NC(=O)c2cccc(N3C(=O)CCC3=O)c2)no1 | > 4 mM (inactive)
15 | CCOc1ccc(N2C(=O)CCC2=O)cc1 | > 4 mM (inactive)
16 | COc1ccc(C(=O)NNC(=S)NC(C)=O)cc1 | > 4 mM (inactive)
17 | CC1(C)Oc2ccc3ccc(=O)oc3c2CC1O (configuration not stated) | > 4 mM (inactive)
18 | Cc1cc(C)c(C(N)=O)c(=S)[nH]1 | > 4 mM (inactive)
19 | Nc1ccc2c(c1)S(=O)(=O)C=C2 | > 4 mM (inactive)
20 | CNC(=S)N1CCN=C1Nc1nc(C)cc(C)n1 | > 4 mM (inactive)
21 | Cn1c(O)c(/C=C2\C=CC=N2)c(=O)[nH]c1=S | > 4 mM (inactive)

Row | Structure (SMILES) | Kd
22 | O=C(O)CCC(=O)c1c[nH]c2ccccc12 | > 4 mM (inactive)
23 | CC(=O)Nc1ccc(Nc2nnc(C)c(=O)[nH]2)cc1 | > 4 mM (inactive)
24 | CC(=O)O[C@H]1C[C@@H](OC(C)=O)C(C)(C)C2CC(=O)[C@]3(C)C(CC[C@@]4(C)[C@H](C(=O)O)OC(=O)C5OC543)[C@]21C (some centres not stated) | > 4 mM (inactive)
25 | COC(=O)c1ccccc1N(C)S(C)(=O)=O | > 4 mM (inactive)
26 | NCc1n[nH]c(=O)c2ccccc12 | > 4 mM (inactive)
27 | CNC(=O)CC1Sc2ccccc2NC1=O (configuration not stated) | > 4 mM (inactive)
28 | CC(=O)Nc1ccc(CN2CCOCC2)cc1 | > 4 mM (inactive)
29 | NC(=O)C1CCN(C2CC(=O)NC2=O)CC1 (configuration not stated) | > 4 mM (inactive)
30 | Cc1cc(C(=O)NN2CCOCC2)c(C)o1 | > 4 mM (inactive)
31 | CC1(C)C2C[C@@H](O)[C@]3(C)C(CC[C@@]4(C)[C@H](c5ccoc5)OC(=O)[C@H]5O[C@]543)[C@@]2(C)[C@@H](O)C[C@H]1O (some centres not stated) | > 4 mM (inactive)
32 | O=C1CC2OCC=C3CN4CC[C@]56c7ccccc7N1C5[C@H]2[C@H]3CC46 (some centres not stated) | > 4 mM (inactive)
33 | C[C@@H]1CC[C@@]2(OC1)OC1CC3C4CC=C5C[C@@H](O)CC[C@]5(C)C4CC[C@]3(C)C1[C@@H]2C (some centres not stated) | > 4 mM (inactive)
34 | N=Nc1c(O)[nH]c2ccccc12 | > 4 mM (inactive)
35 | Nc1ccc2c(c1)OCCO2 | > 4 mM (inactive)
36 | O=C1CNC(=O)N1c1cccc(Cl)c1 | > 4 mM (inactive)
37 | Cn1nc(-c2cccs2)cc1N | > 4 mM (inactive)
38 | S=C(c1ccc(N2CCOCC2)cc1)N1CCOCC1 | > 4 mM (inactive)
39 | O=c1[nH]nnc2sc3c(c12)CCCC3 | > 4 mM (inactive)
40 | O=C1CSC(=S)N1Cc1cccnc1 | > 4 mM (inactive)
41 | CC(C)C(C)/C=C/C(C)C1CCC2C3=CC=C4CC(O)CCC4(C)C3CCC21C (configuration not stated) | > 4 mM (inactive)
42 | OCc1ccc(N2CCOCC2)cc1 | > 4 mM (inactive)

Row | Structure (SMILES) | Kd
43 | COC(=O)C1CCN(c2ccc(Cl)nn2)CC1 | > 4 mM (inactive)
44 | COc1c2c(cc3c1OCO3)C13C=C[C@H](OC)CC1N(C2)CC3O (some centres not stated) | > 4 mM (inactive)
45 | COc1ccc(-c2oc3c(CC=C(C)C)c(O[C@@H]4O[C@H](CO)[C@@H](O)[C@H](O)[C@H]4O)cc(O)c3c(=O)c2O[C@@H]2O[C@@H](C)[C@H](O)[C@@H](O)[C@H]2O)cc1 | > 4 mM (inactive)
46 | COc1ccc(-c2coc3c(OC)c(OC)cc(OC)c3c2=O)cc1 | > 4 mM (inactive)
47 | C/C=C(\C)c1nnc(NC(=O)C(C)C)s1 | > 4 mM (inactive)
48 | Cc1ccc(C(=O)NCCO)c(Cl)c1 | > 4 mM (inactive)
49 | CC(=O)N1CCc2cc(NC(=O)c3ccc(C)cc3)ccc21 | > 4 mM (inactive)
50 | CC(O)(C(=O)O)c1ccccc1 (configuration not stated) | > 4 mM (inactive)
51 | O=S(=O)(Nc1cccc2cn[nH]c12)c1ccc(F)cc1 | > 4 mM (inactive)
52 | NC(=O)Cn1nc(-c2ccc(F)cc2)ccc1=O | > 4 mM (inactive)
53 | CC(=O)O[C@@H]1CC2C(C)(C)[C@H](O)C[C@H](O)[C@]2(C)C2CC[C@@]3(C)C(=CC(=O)O[C@H]3c3ccoc3)[C@@]21C (some centres not stated) | > 4 mM (inactive)
54 | Cc1[nH]c2ccccc2c1CN(C)C | > 4 mM (inactive)
55 | O=C(Nc1ccccc1N1CCCC1)c1cccnc1 | > 4 mM (inactive)
56 | NC(=O)CCn1c(=O)oc2ccccc21 | > 4 mM (inactive)
57 | Cc1ccsc1/C=c1\sc2ncnn2c1=O | > 4 mM (inactive)
58 | COC(=O)C[C@H]1C(C)(C)C(OC(C)=O)[C@]2(O)C=C3C(CC[C@]4(C)C3CC(=O)O[C@H]4c3ccoc3)C1(C)C2=O (some centres not stated) | > 4 mM (inactive)
59 | c1ccc(-c2nc3ccccc3nc2-c2ccccn2)nc1 | > 4 mM (inactive)
60 | CC(C)(C)NC(=O)N1CCC(C(N)=O)CC1 | > 4 mM (inactive)
61 | CC(=O)Nc1cccc(N(C)S(C)(=O)=O)c1 | > 4 mM (inactive)
62 | Nc1ccc(-c2csnn2)cc1 | > 4 mM (inactive)
63 | Cn1nnc2c(N3CCC(C(N)=O)CC3)ncnc21 | > 4 mM (inactive)

Row | Structure (SMILES) | Kd
64 | O=c1nc(NCc2ccco2)sc2ncccc12 | > 4 mM (inactive)
65 | CS(=O)(=O)NC1CCN(Cc2ccccc2)CC1 | > 4 mM (inactive)
66 | Nc1cc(N)nc(SCc2cccnc2)n1 | > 4 mM (inactive)
67 | O=C(NCCO)NC(=S)c1ccccc1 | > 4 mM (inactive)
68 | Fc1cccc(Cl)c1CN1CCNCC1 | > 4 mM (inactive)
69 | O=C1CCCC(=O)N1Cc1ccco1 | > 4 mM (inactive)
70 | Cc1cc(C)n2c(SCc3cccs3)nnc2n1 | > 4 mM (inactive)
71 | c1ccc(CCc2nc(-c3cccnc3)no2)cc1 | > 4 mM (inactive)
72 | COCC(=O)N1CCCc2ccccc21 | > 4 mM (inactive)
73 | COc1cc(C(C)=O)ccc1OC(=O)N1CCOCC1 | > 4 mM (inactive)
74 | COc1ccc(-c2coc3cc(O)ccc3c2=O)cc1 | > 4 mM (inactive)
75 | Nc1ccc(CN2CCS(=O)(=O)CC2)cc1 | > 4 mM (inactive)
76 | C[C@@H]1C(=O)OC2[C@H](O)C34[C@@H]5OC(=O)[C@@]3(O[C@@H]3OC(=O)[C@H](O)[C@@]34[C@H](C(C)(C)C)[C@H]5O)[C@]21O (some centres not stated) | > 4 mM (inactive)
77 | CCOc1ccc(C)cc1S(=O)(=O)n1ccnc1 | > 4 mM (inactive)
78 | CCOC(=O)c1c(C)cc(OC)cc1O | > 4 mM (inactive)
79 | NCc1cccc2c1OCCCO2 | > 4 mM (inactive)
80 | CCOC(=O)c1c(C)cc(O)cc1O | > 4 mM (inactive)
81 | COc1cc2c(cc1OC)[C@@H]1C(=O)c3ccc4oc(C(C)C)cc4c3O[C@@H]1CO2 | > 4 mM (inactive)
82 | Cc1cc(C(=O)NCc2ccco2)cs1 | > 4 mM (inactive)
